Like-named read-outs stand apart in the source and are kept apart here.
How the values were obtained:
[1] = test system: SW480 cells; assay: MTS cell viability assay, SW480; assay type: cell-based; details: Homo sapiens, SW480, 72 h, mean ± SD (n = 3)
Procedure: (§1) MTS Cell Viability Assay. Colorectal cancer cells (SW480 and HCT116), TNBC cells (MDA-MB-231, MDA-MB-468, and BT-20), and lung cancer A549 cells were seeded in 96-well plates at 5×10^3 cells/well, maintained overnight at 37° C., and incubated with the tested compounds at various concentrations. Cell viability was monitored after 72 h using a freshly prepared mixture of 1 part phenazine methosulfate (PMS, Sigma) solution (0.92 mg/mL) and 19 parts 3-(4,5-dimethylthiazol-2-yl)-5-(3-carboxymethoxyphenyl)-2-(4-sulfophenyl)-2H-tetrazolium (MTS, Promega) solution (2 mg/mL). Cells were incubated in 10 μL of this solution at 37° C. for 3 h, and A490 was measured. The effect of each compound is expressed as the concentration required to reduce A490 by 50% (IC50) relative to DMSO-treated cells. Experiments were performed in triplicate.

[2] = test system: HCT116 cells; assay: MTS cell viability assay, HCT116; assay type: cell-based; details: Homo sapiens, HCT-116; 72 h; mean ± SD (n = 3); Table 5; read-out: MTS cell viability IC50, Wnt hyperactive cancer cells HCT116
Procedure: as §1

[3] = target: T1, β-catenin/Tcf protein-protein interaction (Homo sapiens, UniProt P35222); assay: FP competitive inhibition assay; assay type: binding
T1 construct: Wild-type β-catenin (residues 138-781) were cloned into a pET-28b vector; 6×histidine (C); made in house; host or cells: E. coli BL21 DE3
T1 sequence (P35222 138-781): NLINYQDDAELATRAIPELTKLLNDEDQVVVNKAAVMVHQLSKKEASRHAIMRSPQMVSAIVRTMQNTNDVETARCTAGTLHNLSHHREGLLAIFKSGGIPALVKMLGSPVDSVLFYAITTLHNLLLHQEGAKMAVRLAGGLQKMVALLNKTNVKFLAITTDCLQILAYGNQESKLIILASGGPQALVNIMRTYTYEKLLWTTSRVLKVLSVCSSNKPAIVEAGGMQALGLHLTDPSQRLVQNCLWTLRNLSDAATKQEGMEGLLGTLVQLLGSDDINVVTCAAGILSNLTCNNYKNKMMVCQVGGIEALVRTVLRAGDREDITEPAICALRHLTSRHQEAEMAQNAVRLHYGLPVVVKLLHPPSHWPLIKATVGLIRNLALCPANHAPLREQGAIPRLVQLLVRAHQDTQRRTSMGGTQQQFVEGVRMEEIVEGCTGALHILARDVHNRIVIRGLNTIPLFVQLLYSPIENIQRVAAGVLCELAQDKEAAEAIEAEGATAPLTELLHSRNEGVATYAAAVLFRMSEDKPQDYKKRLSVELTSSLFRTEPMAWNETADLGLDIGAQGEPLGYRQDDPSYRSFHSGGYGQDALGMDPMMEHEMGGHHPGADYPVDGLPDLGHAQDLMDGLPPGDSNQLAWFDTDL
Outline: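 His-tagged human β-catenin (residues 138-781, E. coli-expressed) at 10 nM with 2.5 nM fluorescein-labeled Tcf4 (7-51) in PBS-type buffer with bovine γ-globulin and 0.01% Triton X-100. Compounds added, 1.5 h at 4 °C, 1% DMSO, before fluorescence polarization read. IC50 by nonlinear fit; Ki derived from IC50.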

[4] = test system: A549 cells; assay: MTS cell viability assay, A549; assay type: cell-based; details: Homo sapiens, 72 h, mean ± SD (n = 3), Table 4, read-out: MTS cell viability IC50, Wnt normal A549
Procedure: as §1

[5] = Table 5, read-out: MTS cell viability IC50, Wnt hyperactive cancer cells SW480
[6] = Assay 1, mean ± SD (n = 3), read-out: Ki ± SD, Assay 1
[7] = Assay 2, mean ± SD (n = 3), read-out: Ki ± SD, Assay 2
[8] = Table 4, read-out: MTS cell viability IC50, Wnt hyperactive SW480 Cells (converted)
[9] = Assay 3, mean ± SD (n = 3), read-out: Ki ± SD, Assay 3

| SMILES | IC50 [1, 5] | IC50 [2] | Ki [3, 6] | Ki [3, 7] | IC50 [1, 8] | Ki [3, 9] | IC50 [4] | Ki ([3]; Assay 4, mean ± SD (n = 3), read-out: Ki ± SD, Assay 4) | Ki ([3]; Assay 5, mean ± SD (n = 3), read-out: Ki ± SD, Assay 5) |
| --- | --- | --- | --- | --- | --- | --- | --- | --- | --- |
| COc1ccc2sc(CCc3c(CCc4ccc(Cl)cc4)c4cc(C(=O)NCc5ccno5)ccc4n3CCc3nn[nH]n3)nc2c1 [Compound 61, 1-(2-(2H-tetrazol-5-yl)ethyl)-3-(4-chlorophenethyl)-N-(isoxazol-5-ylmethyl)-2-(2-(5-methoxybenzo[d]thiazol-2-yl)ethyl)-1H-indole-5-carboxamide] | 35 ± 4.3 µM | 40 ± 5.3 µM | 1 ± 0.094 µM | 2.9 ± 0.24 µM |  |  |  |  |  |
| COC(=O)CCn1c(CCc2nc3ccccc3s2)c(CCc2ccc(Cl)cc2)c2cc(C(=O)OC)ccc21 [Compound 43, Methyl 2-(2-(benzo[d]thiazol-2-yl)ethyl)-3-(4-chlorophenethyl)-1-(3-methoxy-3-oxopropyl)-1H-indole-5-carboxylate] |  |  |  |  | > 400 µM |  |  |  |  |
| Cc1ccc(CCc2c(-c3ccsc3)n(CCc3nn[nH]n3)c3ccc(C(=O)NCc4ccon4)cc23)cc1 [Compound 93, 1-(2-(2H-tetrazol-5-yl)ethyl)-N-(isoxazol-3-ylmethyl)-3-(4-methylphenethyl)-2-(thiophen-3-yl)-1H-indole-5-carboxamide] | 36 ± 3.9 µM | 44 ± 5.4 µM | 7.2 ± 0.77 µM | 7.4 ± 0.23 µM |  | 13 ± 1.3 µM |  |  |  |
| O=C(NCc1ccc(Cl)cc1)c1ccc2c(c1)c(CCc1ccc(F)cc1)c(CCc1nc3ccccc3s1)n2CCc1nn[nH]n1 [Compound 45, 1-(2-(2H-tetrazol-5-yl)ethyl)-2-(2-(benzo[d]thiazol-2-yl)ethyl)-N-(4-chlorobenzyl)-3-(4-fluoro-phenethyl)-1H-indole-5-carboxamide] | 14 ± 2.2 µM | 12 ± 1.9 µM | 0.97 ± 0.39 µM | 0.7 ± 0.02 µM |  |  |  |  |  |
| COC(=O)c1ccc2c(c1)c(CCc1ccc(Cl)cc1)c(CCc1nc3ccccc3[nH]1)n2CCc1nn[nH]n1 [Compound 34, Methyl 2-(2-(1H-benzo[d]imidazol-2-yl)ethyl)-1-(2-(2H-tetrazol-5-yl)ethyl)-3-(4-chlorophenethyl)-1H-indole-5-carboxylate] |  |  |  |  | 69 ± 11 µM |  | 120 ± 44 µM |  |  |
| COc1ccc2sc(CCc3c(CCc4ccc(Cl)cc4)c4cc(C(=O)NCc5ccncc5)ccc4n3CCc3nn[nH]n3)nc2c1 [Compound 56, 1-(2-(2H-tetrazol-5-yl)ethyl)-3-(4-chlorophenethyl)-2-(2-(5-methoxybenzo[d]thiazol-2-yl)ethyl)-N-(pyridin-4-ylmethyl)-1H-indole-5-carboxamide] | 14 ± 1.7 µM | 23 ± 2.5 µM | 4.2 ± 0.43 µM | 1.9 ± 0.17 µM |  |  |  |  |  |
| COc1ccc2sc(CCc3c(CCc4ccc(Cl)cc4)c4cc(C(=O)NCc5cnccn5)ccc4n3CCc3nn[nH]n3)nc2c1 [Compound 58, 1-(2-(2H-tetrazol-5-yl)ethyl)-3-(4-chlorophenethyl)-2-(2-(5-methoxybenzo[d]thiazol-2-yl)ethyl)-N-(pyrazin-2-ylmethyl)-1H-indole-5-carboxamide] | 19 ± 1.8 µM | 12 ± 1.8 µM | 2 ± 0.29 µM | 7.6 ± 0.94 µM |  |  |  |  |  |
| COc1ccc2sc(CCc3c(CCc4ccc(Cl)cc4)c4cc(C(=O)NCc5ccccc5N(C)C)ccc4n3CCc3nn[nH]n3)nc2c1 [Compound 54, 1-(2-(2H-tetrazol-5-yl)ethyl)-3-(4-chlorophenethyl)-N-(2-(dimethylamino)benzyl)-2-(2-(5-methoxybenzo[d]thiazol-2-yl)ethyl)-1H-indole-5-carboxamide] | 11 ± 1.5 µM | 11 ± 1.7 µM | 1.9 ± 0.14 µM | 3 ± 0.24 µM |  |  |  |  |  |
| Cc1ccc(CCc2c(-c3ccsc3)n(CCc3nn[nH]n3)c3ccc(C(=O)O)cc23)cc1 [Compound 78, 1-(2-(2H-tetrazol-5-yl)ethyl)-3-(4-methylphenethyl)-2-(thiophen-3-yl)-1H-indole-5-carboxylic acid] | > 400 µM | > 400 µM | 0.4 ± 0.14 µM | 0.97 ± 0.14 µM |  | 0.25 ± 0.079 µM |  | 0.36 ± 0.07 µM | 0.23 µM |
| COc1ccc2sc(CCc3c(CCc4ccc(Cl)cc4)c4cc(C(=O)NCc5ccc(Cl)cc5)ccc4n3CCc3nn[nH]n3)nc2c1 [Compound 48, 1-(2-(2H-tetrazol-5-yl)ethyl)-N-(4-chlorobenzyl)-3-(4-chlorophenethyl)-2-(2-(5-methoxybenzo-[d]thiazol-2-yl)ethyl)-1H-indole-5-carboxamide] |  |  | 2.4 ± 0.56 µM | 3.2 ± 0.24 µM | 9.3 ± 4.9 µM |  |  |  |  |
| COc1ccc2sc(CCc3c(CCc4ccc(Cl)cc4)c4cc(C(=O)NCc5csc(C)n5)ccc4n3CCc3nn[nH]n3)nc2c1 [Compound 60, 1-(2-(2H-tetrazol-5-yl)ethyl)-3-(4-chlorophenethyl)-2-(2-(5-methoxybenzo[d]thiazol-2-yl)ethyl)-N-((2-methylthiazol-4-yl)methyl)-1H-indole-5-carboxamide] | 14 ± 1.9 µM | 18 ± 2.8 µM | 0.93 ± 0.092 µM | 4.7 ± 0.28 µM |  |  |  |  |  |
| COc1ccc2sc(CCc3c(CCc4ccc(Cl)cc4)c4cc(C(=O)NCc5ccon5)ccc4n3CCc3nn[nH]n3)nc2c1 [Compound 62, 1-(2-(2H-tetrazol-5-yl)ethyl)-3-(4-chlorophenethyl)-N-(isoxazol-3-ylmethyl)-2-(2-(5-methoxybenzo[d]thiazol-2-yl)ethyl)-1H-indole-5-carboxamide] | 21 ± 2.1 µM | 28 ± 3.8 µM | 3.1 ± 0.18 µM | 7.6 ± 0.55 µM |  |  |  |  |  |
| COc1ccc2sc(CCc3c(CCc4ccc(Cl)cc4)c4cc(C(=O)NCc5ccncn5)ccc4n3CCc3nn[nH]n3)nc2c1 [Compound 57, 1-(2-(2H-tetrazol-5-yl)ethyl)-3-(4-chlorophenethyl)-2-(2-(5-methoxybenzo[d]thiazol-2-yl)ethyl)-N-(pyrimidin-4-ylmethyl)-1H-indole-5-carboxamide] | 19 ± 1.6 µM | 24 ± 2.8 µM | 3.6 ± 0.35 µM | 2.8 ± 0.17 µM |  |  |  |  |  |
| Cc1ccc(CCc2c(-c3ccsc3)n(CCc3nn[nH]n3)c3ccc(C(=O)NO)cc23)cc1 [Compound 90, 1-(2-(2H-tetrazol-5-yl)ethyl)-N-hydroxy-3-(4-methylphenethyl)-2-(thiophen-3-yl)-1H-indole-5-carboxamide] | 115 ± 22 µM | 133 ± 4.1 µM | 0.34 ± 0.043 µM | 0.24 ± 0.043 µM |  |  |  |  |  |
| COc1ccc2sc(CCc3c(CCc4ccc(Cl)cc4)c4cc(C(=O)NCc5ccccn5)ccc4n3CCc3nn[nH]n3)nc2c1 [Compound 55, 1-(2-(2H-tetrazol-5-yl)ethyl)-3-(4-chlorophenethyl)-2-(2-(5-methoxybenzo[d]thiazol-2-yl)ethyl)-N-(pyridin-2-ylmethyl)-1H-indole-5-carboxamide] | 13 ± 1.7 µM | 20 ± 2.7 µM | 2.9 ± 0.5 µM | 5.1 ± 0.42 µM |  |  |  |  |  |
| COc1ccc2nc(C#Cc3c(CCC4CCOCC4)c4cc(C(=O)O)ccc4n3CCc3nn[nH]n3)sc2c1 [Compound 74, 1-(2-(2H-tetrazol-5-yl)ethyl)-2-((6-methoxybenzo[d]thiazol-2-yl)ethynyl)-3-(2-(tetrahydro-2H-pyran-4-yl)ethyl)-1H-indole-5-carboxylic acid] |  |  | 4.2 ± 0.29 µM | 6 ± 0.39 µM |  |  |  |  |  |
| O=C(O)c1ccc2c(c1)c(CCC1CCOCC1)c(-c1ccsc1)n2CCc1nn[nH]n1 [Compound 86, 1-(2-(2H-tetrazol-5-yl)ethyl)-3-(2-(tetrahydro-2H-pyran-4-yl)ethyl)-2-(thiophen-3-yl)-1H-indole-5-carboxylic acid] |  |  | 1.3 ± 0.4 µM | 1.2 ± 0.23 µM |  |  |  |  |  |
